From ChEMBL document CHEMBL1909046, “DrugMatrix in vitro pharmacology data”

Experiments:
[1] = target: T1, Alpha-1D adrenergic receptor (Homo sapiens, UniProt P25100); type: cell membranes, HEK293, Membrane; settings: hek293; also: in other assays of this panel Not Active means under 50% inhibition at 10 µM
T1 sequence (P25100 whole entry): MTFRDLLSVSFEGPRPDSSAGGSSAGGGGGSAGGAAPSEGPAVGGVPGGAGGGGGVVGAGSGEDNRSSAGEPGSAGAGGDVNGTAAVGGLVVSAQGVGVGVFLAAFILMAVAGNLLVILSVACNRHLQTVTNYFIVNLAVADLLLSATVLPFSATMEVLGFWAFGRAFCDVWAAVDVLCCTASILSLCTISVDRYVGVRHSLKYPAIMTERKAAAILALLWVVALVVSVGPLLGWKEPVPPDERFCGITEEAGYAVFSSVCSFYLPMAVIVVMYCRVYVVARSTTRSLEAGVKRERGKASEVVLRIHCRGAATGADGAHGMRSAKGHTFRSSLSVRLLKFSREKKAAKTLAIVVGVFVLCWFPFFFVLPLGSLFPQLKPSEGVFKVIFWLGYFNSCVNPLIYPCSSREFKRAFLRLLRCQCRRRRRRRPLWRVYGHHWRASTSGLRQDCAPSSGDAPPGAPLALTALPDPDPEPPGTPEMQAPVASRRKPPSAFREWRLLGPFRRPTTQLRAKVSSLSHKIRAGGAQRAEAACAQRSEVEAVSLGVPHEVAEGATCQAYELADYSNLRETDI

[2] = target: T2, Type-2 angiotensin II receptor (Homo sapiens, UniProt P50052); type: cell-based; settings: cho-k1; also: in other assays of this panel Not Active means under 50% inhibition at 10 µM
T2 sequence (P50052 whole entry): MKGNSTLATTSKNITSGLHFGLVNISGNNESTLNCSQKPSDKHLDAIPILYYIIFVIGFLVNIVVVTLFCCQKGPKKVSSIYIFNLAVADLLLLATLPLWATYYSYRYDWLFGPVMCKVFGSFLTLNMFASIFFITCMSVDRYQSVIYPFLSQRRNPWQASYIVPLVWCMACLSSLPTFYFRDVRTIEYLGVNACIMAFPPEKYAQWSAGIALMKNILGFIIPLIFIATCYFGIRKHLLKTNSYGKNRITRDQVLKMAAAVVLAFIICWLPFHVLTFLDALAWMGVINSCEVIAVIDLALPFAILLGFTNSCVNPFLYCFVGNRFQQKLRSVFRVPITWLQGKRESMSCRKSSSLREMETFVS

[3] = DRUGMATRIX: Glutamate, NMDA, Agonism radioligand binding (ligand: [3H] CGP-39653); type: cell membranes, Rattus norvegicus, Wistar, Cerebral cortex, Membrane; settings: Not Active = under 50% inhibition at 10 µM
[4] = target: T3, Nitric oxide synthase, inducible (Mus musculus, UniProt P29477); set-up: species or system Escherichia coli;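 also: inhibition of iNOS enzyme activity measured with L-arginine as substrate; in other assays of this panel Not Active means under 50% inhibition at 10 µM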
T3 sequence (P29477 whole entry): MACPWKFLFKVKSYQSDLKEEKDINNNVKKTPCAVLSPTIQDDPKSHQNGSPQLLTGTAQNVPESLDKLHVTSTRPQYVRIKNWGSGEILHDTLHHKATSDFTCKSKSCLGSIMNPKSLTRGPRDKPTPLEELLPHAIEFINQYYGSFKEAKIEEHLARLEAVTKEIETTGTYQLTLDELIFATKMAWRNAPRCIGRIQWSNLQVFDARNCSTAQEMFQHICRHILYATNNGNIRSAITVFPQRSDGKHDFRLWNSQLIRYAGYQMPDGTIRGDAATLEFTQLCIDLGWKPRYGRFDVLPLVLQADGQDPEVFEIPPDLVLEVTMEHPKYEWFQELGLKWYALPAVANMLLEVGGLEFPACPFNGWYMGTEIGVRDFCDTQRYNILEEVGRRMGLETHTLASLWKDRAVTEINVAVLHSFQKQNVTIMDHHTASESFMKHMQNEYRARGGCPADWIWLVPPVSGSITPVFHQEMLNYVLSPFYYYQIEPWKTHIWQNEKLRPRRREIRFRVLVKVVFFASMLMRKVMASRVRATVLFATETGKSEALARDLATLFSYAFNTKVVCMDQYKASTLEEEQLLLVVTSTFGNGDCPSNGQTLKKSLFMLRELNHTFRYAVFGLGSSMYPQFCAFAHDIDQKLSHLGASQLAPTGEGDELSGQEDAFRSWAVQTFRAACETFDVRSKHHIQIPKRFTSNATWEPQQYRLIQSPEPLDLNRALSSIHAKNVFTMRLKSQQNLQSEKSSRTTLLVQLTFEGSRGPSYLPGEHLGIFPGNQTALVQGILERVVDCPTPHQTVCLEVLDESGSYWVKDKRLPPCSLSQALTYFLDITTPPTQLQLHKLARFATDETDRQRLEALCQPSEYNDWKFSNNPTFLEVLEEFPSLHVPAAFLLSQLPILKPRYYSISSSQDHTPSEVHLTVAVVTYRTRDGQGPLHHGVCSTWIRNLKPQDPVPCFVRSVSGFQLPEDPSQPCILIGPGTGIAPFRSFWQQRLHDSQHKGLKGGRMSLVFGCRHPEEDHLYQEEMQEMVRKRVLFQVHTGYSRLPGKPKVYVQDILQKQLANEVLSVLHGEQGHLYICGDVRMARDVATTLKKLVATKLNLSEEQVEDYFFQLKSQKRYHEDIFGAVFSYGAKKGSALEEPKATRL

[5] = target: Kappa-type opioid receptor (Homo sapiens, UniProt P41145); experiment: DRUGMATRIX: Opiate kappa (OP2, KOP) radioligand binding (ligand: [3H] Diprenorphine); type: cell membranes, HEK293, Membrane; settings: hek293; Not Active = under 50% inhibition at 10 µM
Chain of Kappa-type opioid receptor (P41145 whole entry): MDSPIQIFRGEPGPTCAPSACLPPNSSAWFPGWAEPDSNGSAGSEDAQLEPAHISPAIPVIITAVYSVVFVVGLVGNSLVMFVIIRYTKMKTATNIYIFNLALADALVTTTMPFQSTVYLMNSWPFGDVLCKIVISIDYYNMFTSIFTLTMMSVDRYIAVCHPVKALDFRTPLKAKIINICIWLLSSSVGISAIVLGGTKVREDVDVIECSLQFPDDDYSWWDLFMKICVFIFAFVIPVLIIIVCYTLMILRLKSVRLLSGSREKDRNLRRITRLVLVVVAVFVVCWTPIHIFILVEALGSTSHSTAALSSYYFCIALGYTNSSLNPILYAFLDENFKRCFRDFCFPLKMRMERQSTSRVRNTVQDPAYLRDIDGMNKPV

[6] = DRUGMATRIX: Phorbol Ester radioligand binding (ligand: [3H] PDBu); type: cell membranes, Mus musculus, ICR, Brain, Membrane; settings: Not Active = under 50% inhibition at 10 µM
[7] = DRUGMATRIX: Phosphodiesterase PDE3 enzyme inhibition (substrate: [3H]cAMP + cAMP); type: tissue-based, Homo sapiens; settings: platelet; Not Active = under 50% inhibition at 10 µM
[8] = target: T4, Caspase-1 (Homo sapiens, UniProt P29466); set-up: species or system Escherichia coli;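 also: Caspase-1 enzyme inhibition assay with a peptide substrate; in other assays of this panel Not Active means under 50% inhibition at 10 µM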
T4 sequence (P29466 whole entry): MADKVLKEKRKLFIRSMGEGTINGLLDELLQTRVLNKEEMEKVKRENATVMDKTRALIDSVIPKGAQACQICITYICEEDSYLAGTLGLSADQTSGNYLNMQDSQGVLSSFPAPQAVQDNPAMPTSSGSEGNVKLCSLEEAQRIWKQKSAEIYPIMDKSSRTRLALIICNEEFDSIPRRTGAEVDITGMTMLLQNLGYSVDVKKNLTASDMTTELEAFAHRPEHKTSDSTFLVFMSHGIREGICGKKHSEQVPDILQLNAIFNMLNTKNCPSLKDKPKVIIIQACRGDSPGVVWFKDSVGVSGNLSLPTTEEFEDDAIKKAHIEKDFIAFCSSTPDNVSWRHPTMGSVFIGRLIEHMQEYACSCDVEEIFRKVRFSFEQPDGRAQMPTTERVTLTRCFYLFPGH

[9] = target: Cytochrome P450 2C9 (Homo sapiens, UniProt P11712); settings: bti-tn-5b1-4; also: in other assays of this panel Not Active means under 50% inhibition at 10 µM
Chain of Cytochrome P450 2C9 (P11712 whole entry): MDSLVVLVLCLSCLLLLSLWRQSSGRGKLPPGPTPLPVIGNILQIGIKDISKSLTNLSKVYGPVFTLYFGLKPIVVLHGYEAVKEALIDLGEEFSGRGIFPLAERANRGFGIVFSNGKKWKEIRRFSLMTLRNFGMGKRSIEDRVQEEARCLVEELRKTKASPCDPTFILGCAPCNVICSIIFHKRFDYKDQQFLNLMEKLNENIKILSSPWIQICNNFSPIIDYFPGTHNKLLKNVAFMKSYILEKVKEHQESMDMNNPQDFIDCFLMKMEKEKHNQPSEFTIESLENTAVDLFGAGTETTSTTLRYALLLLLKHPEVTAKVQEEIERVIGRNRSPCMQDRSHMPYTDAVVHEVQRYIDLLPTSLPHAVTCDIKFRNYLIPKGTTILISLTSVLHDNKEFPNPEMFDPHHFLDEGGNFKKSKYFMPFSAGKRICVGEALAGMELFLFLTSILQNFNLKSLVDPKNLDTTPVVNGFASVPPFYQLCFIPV

CCC(C)n1ncn(-c2ccc(N3CCN(c4ccc(OCC5COC(Cn6cncn6)(c6ccc(Cl)cc6Cl)O5)cc4)CC3)cc2)c1=O (configuration not stated) [ITRACONAZOLE]
Not Active: IC50 [1] | IC50 [2] | IC50 [3] | Ki [3] | IC50 [4] | IC50 [5] | IC50 [6] | Ki [6] | IC50 [7] | Ki [7] | IC50 [8] | IC50 [9] | Ki [9]

C[C@](N)(Cc1ccc(O)c(O)c1)C(=O)O [METHYLDOPA]
Not Active: IC50 [1] | IC50 [2] | IC50 [3] | Ki [3] | IC50 [4] | IC50 [5] | IC50 [6] | Ki [6] | IC50 [7] | Ki [7] | IC50 [8] | IC50 [9] | Ki [9]

Cc1ccccc1N1C(=O)c2cc(S(N)(=O)=O)c(Cl)cc2NC1C (configuration not stated) [METOLAZONE]
Not Active: IC50 [1] | IC50 [2] | IC50 [3] | Ki [3] | IC50 [4] | IC50 [5] | IC50 [6] | Ki [6] | IC50 [7] | Ki [7] | IC50 [8] | IC50 [9] | Ki [9]

Nc1nc2c(ncn2CCC(CO)CO)c(=O)[nH]1 [PENCICLOVIR]
Not Active: IC50 [1] | IC50 [2] | IC50 [3] | Ki [3] | IC50 [4] | IC50 [5] | IC50 [6] | Ki [6] | IC50 [7] | Ki [7] | IC50 [8] | IC50 [9] | Ki [9]

CCOc1ccc(NC(C)=O)cc1 [PHENACETIN]
Not Active: IC50 [1] | IC50 [2] | IC50 [3] | Ki [3] | IC50 [4] | IC50 [5] | IC50 [6] | Ki [6] | IC50 [7] | Ki [7] | IC50 [8] | IC50 [9] | Ki [9]

NC1=NC(=O)C(c2ccccc2)O1 (configuration not stated) [PEMOLINE]
Not Active: IC50 [1] | IC50 [2] | IC50 [3] | Ki [3] | IC50 [4] | IC50 [5] | IC50 [6] | Ki [6] | IC50 [7] | Ki [7] | IC50 [8] | IC50 [9] | Ki [9]

CN(C)C(=O)Oc1cc(OC(=O)N(C)C)cc(C(O)CNC(C)(C)C)c1 (configuration not stated) [BAMBUTEROL]
Not Active: IC50 [1] | IC50 [2] | IC50 [3] | Ki [3] | IC50 [4] | IC50 [5] | IC50 [6] | Ki [6] | IC50 [7] | Ki [7] | IC50 [8] | IC50 [9] | Ki [9]

C[C@H]1c2cccc(O)c2C(=O)C2=C(O)[C@]3(O)C(=O)C(C(N)=O)=C(O)[C@@H](N(C)C)[C@@H]3[C@@H](O)[C@@H]21.O [DOXYCYCLINE]
Not Active: IC50 [1] | IC50 [2] | IC50 [3] | Ki [3] | IC50 [4] | IC50 [5] | IC50 [6] | Ki [6] | IC50 [7] | Ki [7] | IC50 [8] | IC50 [9] | Ki [9]

C[C@H]1O[C@@H](O[C@H]2[C@@H](O)C[C@H](O[C@H]3[C@@H](O)C[C@H](O[C@H]4CC[C@@]5(C)[C@H](CC[C@@H]6[C@@H]5C[C@@H](O)[C@]5(C)[C@@H](C7=CC(=O)OC7)CC[C@]65O)C4)O[C@@H]3C)O[C@@H]2C)C[C@H](O)[C@@H]1O [DIGOXIN]
Not Active: IC50 [1] | IC50 [2] | IC50 [3] | Ki [3] | IC50 [4] | IC50 [5] | IC50 [6] | Ki [6] | IC50 [7] | Ki [7] | IC50 [8] | IC50 [9] | Ki [9]
